Data reported in article PMC10540216, “Activity Guided Azide-methyllysine Photo-trapping for Substrate Profiling of Lysine Demethylases” (Journal of the American Chemical Society, 2023).
“Also recorded” adds a separate entry of the source. Where a SMILES comes first, the peptide text is derived from it. Where no end group is shown, it is not given here. [ ]: non-standard residue; d: D form. Lys(Me3) = C[N+](C)(C)CCCC[C@H](N)C(=O)O; Lys(Me2) = CN(C)CCCC[C@H](N)C(=O)O; Lys(Me) = CNCCCC[C@H](N)C(=O)O

What was measured:
KDM4A = experiment: Demethylase activity of wild type KDM4A on peptide substrates (MALDI-TOF MS); format: biochemical, human; settings: 10 µM enzyme, 10 µM peptide, 1 mM 2OG, 50 mM Tris pH 8, 37°C, three hours
Description: fritted syringe was rocked for 2-4 hours at room temperature using a fixed angle rocker (Fisher 07202202). After cleavage, the solvent was ejected from the syringe into a 50mL Falcon tube, leaving behind the resin in the syringe. Nitrogen gas was bubbled through the solution to remove roughly 50% of the TFA prior to precipitation via -80°C diethyl ether for 5-10 minutes (Acros #326860010). Precipitate was then pelleted via centrifugation (Sorvall Legend XTR) at 3000 rpm for 5 mins. Supernatant was decanted. Crude peptide was then resuspended in 0.1% TFA prior to purification and characterization as described for peptides from the peptide facility. The integrity of the purified peptides was confirmed by MALDI-TOF MS. The complete list is in Table S1.
3. Expression and purification of wild type KDM4A-E […]
bacterial expression construct pNIC28-Bsa4 (Addgene ID: 38846) was obtained from Addgene […]
E. Coli BL21 (DE3) competent cells (Invitrogen) using pNIC28-Bsa4 kanamycin-resistant vector.
A single colony was picked up and grown overnight at 37 °C in 10 mL of Luria-Bertani (LB) broth in the presence of 50 μg/mL kanamycin and 35 μg/mL chloramphenicol. The culture was diluted 100-fold and allowed to grow at 37 °C to an optical density (OD600) of 0.8, and protein expression was induced overnight at 17 °C with 0.6 mM IPTG in an Innova 44® Incubator shaker (New Brunswick Scientific). Proteins were purified as follows: harvested cells were resuspended in 15 mL lysis buffer (50 mM Tris-HCl pH 8.0, 200 mM NaCl, 5 mM b-mercaptoethanol, 10% glycerol, 25 mM imidazole, Lysozyme, DNase, and Roche protease inhibitor cocktail). […]
After passing 20 volumes of washing buffer (50 mM Tris-HCl pH 8.0, 200 mM NaCl, 5 mM b-mercaptoethanol, 10% glycerol, and 25 mM imidazole), proteins were eluted with a buffer containing 50 mM Tris-HCl pH 8.0, 200 mM NaCl, 5 mM b-mercaptoethanol, 10% glycerol, and 400 mM imidazole. […] The protein concentration was determined […]
8.0, 200 mM NaCl, and 10% glycerol. […] The protein concentration was determined using Bradford assay kit (BioRad Laboratories) with BSA as a standard. […]

KDM4A-E = experiment: Demethylase activity of KDM4 subfamily on peptide substrates (MALDI-TOF MS), result worded for KDM4A-E together; format: biochemical, human; settings: wild-type KDM4A-E, 10 µM enzyme, 10 µM peptide, 1 mM 2OG, 50 mM Tris pH 8, 37°C, three hours
CBX1 chromodomain [1] = biological target: T1, CBX1 chromodomain (Homo sapiens, UniProt P83916); experiment: Isothermal titration calorimetry of peptide binding to CBX1 chromodomain; settings: ITC, T 288.15 K in Table S6
T1 construct: occupied by CBX1 chromodomain at a concentration of 110 µM; 6xHis (N); made in house

CBX1 chromodomain [2] = biological target: T1, CBX1 chromodomain; experiment: as above; settings: ITC, 25 °C, 1.1 mM peptide into 110 µM CBX1 chromodomain; for Kd: 200mM NaCl, 10% glycerol, 50mM Tris pH 8.0, single binding site model
Description: (§1) 7. Expression and purification of lysine methyltransferases and Chromodomains […]
17. Isothermal Titration Calorimetry
Isothermal titration calorimetry (ITC) was performed with an ITC200 instrument (MicroCal, Malvern). Experiments were conducted at 25 °C while stirring at 750 rpm. Buffers of protein […]
were matched to 200mM NaCl, 10% glycerol, and 50mM Tris pH 8.0. Each titration was performed as follows: one initial injection of 0.4 µL for 0.8 seconds, followed by 19 injections of 2.0 µL for 4 seconds, with ≥2 mins between each injection. The initial injection was discarded prior to data analysis. The microsyringe (40µL) was loaded with 1.1 mM peptide and injected into the cell (200µL), occupied by CBX1 chromodomain at a concentration of 110 µM. Data was fitted to a single binding site model using Microcal ITC200 Software with Origin Lab 7.
(§2) KDM4A mammalian expression plasmid in CMV vector was purchased from Addgene (plasmid #24180). Full-length G9a in pCDNA3 vector was kind from Prof. Minkui Luo at the Memorial Sloan-Kettering Cancer Center. HEK293T/17 cells (ATCC) were grown in a T25 containing Delbucco’s Modified Eagle Medium (DMEM) (Corning) with 10% FBS at 37 °C, 5% CO2, and 95% relative humidity. When cells reached 80% confluency, 5 µg of plasmid and 10 µg

KDM4A-I71AzF [3] = experiment: Photo-crosslinking with TAMRA peptides, in-gel fluorescence; format: binding, human
KDM4E-L72AzF = experiment: as above; format: binding; settings: 10 µM peptide, 20 µM protein, UV irradiation
Description: (§3) 10. Photo-crosslinking experiment with peptides and in-gel fluorescence For peptide photo-crosslinking experiments, 10 µM TAMRA-labeled H3K9me0 or H3K9me3 […]
(§4) mM ascorbic acid, 50 mM tris pH 8.0, 50 μM Fe(NH4)2(SO4)2, 200 µM 2OG. Samples were […]
(§5) 365nm 100% irradiated) for 30 minutes at 4 °C on ice. Negative controls were kept in dark on ice for the full 30 minutes. 10 µL of sample was mixed with 5 µL 4X Laemmli dye (Biorad #1610747) and separated on a 4-12 % Criterion XT precast gel (Bio-Rad Laboratories). Gels were imaged on a ChemiDoc MP Imaging system using TAMRA fluorophore excitation wavelength (Emission filter 605/50, Light: green Epi illumination). The gel was subsequently stained with Coomassie brilliant blue R-250 staining solution to confirm the presence of proteins in all the samples. […]

wild-type KDM4A = experiment: as above; format: binding, human; settings: 10 µM peptide, 20 µM protein, 365 nm UV, 30 minutes at 4 °C
Description: as §3, §4, §5

KDM4C-I73AzF = experiment: as above; format: binding, human; settings: 10 µM peptide, 20 µM protein, UV irradiation
Description: as §3, §4, §5

KDM4D-L75AzF = experiment: as above; format: binding, human; settings: 10 µM peptide, 20 µM protein, UV irradiation
Description: as §3, §4, §5

[4] = tested on: catalytically dead AzF variants of KDM4A; experiment: as above; format: binding, human; settings: majority of the catalytically dead AzF variants, 10 µM peptide, 20 µM protein, 365 nm UV, 30 minutes
Description: as §3, §4, §5

G9a = experiment: Methylation of eIF4A3-K374 peptides by KMT (MALDI-TOF MS); format: biochemical; settings: 20 µM KMT, 10 µM peptide, 200 µM SAM
Description: as §1
16. Methylation activity of wild type KMTs on eIF4A3-K374me0/1/2 peptides 20 µM lysine methyltransferase, 10 µM eIF4A3-me0/1/2 peptide and 200 µM SAM were incubated at room temperature for 1-2 hours in 50 mM Tris pH 8.0. Reaction was stopped by storing the microcentrifuge tubes on ice. After mixing, 0.8 µL of sample and 0.8 µL of α-cyano-4-hydroxycinnamic acid (CHCA) (dissolved in 50:50 0.1% TFA and acetonitrile) were combined on a MALDI plate. Samples were ionized using reflectron positive mode on Bruker Daltonics UltrafleXtreme MALDI TOF with detection carried out from 700-3500 m/z. Bruker Flex Analysis software was used to analyze the MALDI-TOF MS spectra.
17. Isothermal Titration Calorimetry […]
The microsyringe (40µL) was loaded with 1.1 mM peptide and injected into the cell (200µL), occupied by CBX1 chromodomain at a concentration of 110 µM. Data was fitted to a single binding site model using Microcal ITC200 Software with Origin Lab 7.
as §2

KDM4A-I71AzF [5] = experiment: Demethylase activity of AzF mutant on peptide substrates (MALDI-TOF MS); format: biochemical, human; settings: 10 µM enzyme, 10 µM peptide, 1 mM 2OG, 50 mM Tris pH 8, 37°C, three hours

T1 sequence (P83916 21-79 limits assumed): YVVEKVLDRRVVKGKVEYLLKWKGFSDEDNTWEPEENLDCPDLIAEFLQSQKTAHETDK

Row | Compound | demethylation by KDM4A (KDM4A) | TΔS (CBX1 chromodomain [1]) [kcal/mol] | ΔG (CBX1 chromodomain [1]) [kcal/mol] | ΔH (CBX1 chromodomain [1]) [kcal/mol] | ΔS (CBX1 chromodomain [1]) [cal/mol/degree] | Kd (CBX1 chromodomain [2]) [µM] | methylation by G9a (in words) (G9a) | further results
1 | CC[C@H](C)[C@H](NC(=O)[C@H](C)NC(=O)[C@@H](NC(=O)CNC(=O)[C@H](CCCC[N+](C)(C)C)NC(=O)[C@H](CCCNC(=N)N)NC(=O)CNC(=O)[C@H](Cc1ccc(O)cc1)NC(=O)[C@H](CCCNC(=N)N)NC(=O)CNC(=O)[C@H](CO)NC(=O)[C@H](CCCNC(=N)N)NC(=O)CN)C(C)C)C(=O)N[C@@H](CC(N)=O)C(=O)N[C@@H](Cc1ccccc1)C(=O)N[C@H](C(=O)N[C@@H](CCCCN)C(N)=O)C(C)C [compound 13] (H-GRSGRYGR[Lys(Me3)]GVAINFVK-NH2) | indeed demethylated by KDM4A in vitro | 2.472 | -6.230 | -3.758 | 8.58 | 23.2 ± 2 |  | demethylation by KDM4A-E (KDM4A-E): demethylated by multiple KDM4s; also recorded: robust demethylation
2 | (5/6)-TA M R A-GGARTKQTARKme3STGGKAPR [compound 6, tetramethylrhodamine (TAMRA)-attached H3K9me3 peptide] |  |  |  |  |  |  |  | crosslinking with KDM4A-I71AzF (KDM4A-I71AzF [3]; 10 µM peptide, 20 µM protein, 365 nm UV, 30 minutes at 4 °C): robust crosslinking; crosslinking without UV exposure (control) (KDM4A-I71AzF [3]; kept in dark on ice 30 minutes): no fluorescence band was detected; crosslinking with KDM4E-L72AzF (KDM4E-L72AzF): successful crosslinking; crosslinking with wild-type KDM4A (wild-type KDM4A): failed to undergo crosslinking; crosslinking with KDM4C-I73AzF (KDM4C-I73AzF): successful crosslinking; crosslinking with KDM4D-L75AzF (KDM4D-L75AzF): successful crosslinking; crosslinking with catalytically dead AzF variants [4]: ineffective to trap the substrate
3 | GRSGRYGR[Lys(Me)]GVAINFVK [compound 22, eIF4A3-K374me1 peptide] | not demethylated by KDM4A; also recorded: failed to convert to Kme0 | 0 | 0 | 0 | 0 |  | methylated by G9a; also recorded: trimethylated by G9a | binding to CBX1 chromodomain (in words) (CBX1 chromodomain [2]; 50mM Tris pH 8.0): no binding; also recorded: not bind to CBX1; also recorded: no detectable interaction
4 | KSAPSTGGVKme3KPHRYKPGTGK [compound 5, H3K36me3 peptide] |  |  |  |  |  |  |  | demethylation by I71AzF mutant (KDM4A-I71AzF [5]): modestly
5 | CC[C@H](C)[C@H](NC(=O)[C@H](C)NC(=O)[C@@H](NC(=O)CNC(=O)[C@H](CCCCN(C)C)NC(=O)[C@H](CCCNC(=N)N)NC(=O)CNC(=O)[C@H](Cc1ccc(O)cc1)NC(=O)[C@H](CCCNC(=N)N)NC(=O)CNC(=O)[C@H](CO)NC(=O)[C@H](CCCNC(=N)N)NC(=O)CN)C(C)C)C(=O)N[C@@H](CC(N)=O)C(=O)N[C@@H](Cc1ccccc1)C(=O)N[C@H](C(=O)N[C@@H](CCCCN)C(N)=O)C(C)C [compound 23] (H-GRSGRYGR[Lys(Me2)]GVAINFVK-NH2) | demethylated only to eIF4A3-K374me1 by KDM4A; also recorded: demethylated to Kme1 by KDM4A | -1.106 | -5.470 | -6.576 | -3.84 | 95.2 ± 1.4 | methylated by G9a; also recorded: trimethylated by G9a | 
